Assay results reported in US6358885B1, “Substituted phenylheterocyclic herbicides” (Mississippi State University, priority 1992, dated 2002).

What was measured:
[1] = system: cotton; test: Test B preemergence/postemergence greenhouse plant response rating 0 to 10; format: in vivo, Gossypium hirsutum; conditions: 0 to 10 scale
How it was run: (§1)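 Test chemicals were sprayed onto freshly planted seed and, concurrently, onto young plants between the one and four leaf stage. After a twelve- to sixteen-day greenhouse period, each species was visually compared with untreated controls.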

[2] = system: corn; test: as above; format: in vivo, Zea mays; conditions: 0 to 10 scale
How it was run: as §1

[3] = system: sorghum; test: as above; format: in vivo, Sorghum bicolor; conditions: 0 to 10 scale
How it was run: as §1

[4] = system: wild buckwheat; test: Test C preemergence/postemergence greenhouse plant response rating 0 to 100; format: in vivo, Polygonum convolvulus; conditions: POSTEMERGENCE; for Plant response rating, Wild buckwheat: 0 to 100 scale
How it was run: (§2)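 Compounds in non-phytotoxic solvent went onto sandy loam before emergence (seeded one day earlier) or onto plants at the one-to-four leaf stage. Duck salad was treated via flood water (~2.5 cm, maintained) over silt loam.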

[5] = system: wheat; test: as above; format: in vivo, Triticum aestivum; conditions: POSTEMERGENCE; for Plant response rating, Wheat: 0 to 100 scale
How it was run: as §2

[6] = system: crabgrass; test: Test B preemergence/postemergence greenhouse plant response rating 0 to 10; format: in vivo, Digitaria spp.; conditions: 0 to 10 scale
How it was run: as §1

[7] = system: cotton; test: Test C preemergence/postemergence greenhouse plant response rating 0 to 100; format: in vivo, Gossypium hirsutum; conditions: POSTEMERGENCE; for Plant response rating, Cotton: 0 to 100 scale
How it was run: as §2

[8] = system: purple nutsedge; test: Test B preemergence/postemergence greenhouse plant response rating 0 to 10; format: in vivo, Cyperus rotundus; conditions: 0 to 10 scale
How it was run: as §1

[9] = system: velvetleaf; test: Test C preemergence/postemergence greenhouse plant response rating 0 to 100; format: in vivo, Abutilon theophrasti; conditions: POSTEMERGENCE; for Plant response rating, Velvetleaf: 0 to 100 scale
How it was run: as §2

[10] = system: sugar beet; test: Test B preemergence/postemergence greenhouse plant response rating 0 to 10; format: in vivo, Beta vulgaris; conditions: 0 to 10 scale
How it was run: as §1

[11] = system: wild oat; test: as above; format: in vivo, Avena fatua; conditions: 0 to 10 scale
How it was run: as §1

[12] = system: wheat; test: as above; format: in vivo, Triticum aestivum; conditions: 0 to 10 scale
How it was run: as §1

[13] = system: pigweed; test: Test C preemergence/postemergence greenhouse plant response rating 0 to 100; format: in vivo, Amaranthusretroflexus; conditions: POSTEMERGENCE; for Plant response rating Pigweed: 0 to 100 scale
How it was run: as §2

[14] = system: barnyardgrass; test: Test C flood test plant response rating 0 to 100; format: in vivo, Echinochloa crus-galli; conditions: for Plant response rating Barnyardgrass 2: flood test species listed under POSTEMERGENCE, 0 to 100 scale
How it was run: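 Compounds in non-phytotoxic solvent applied preemergence to sandy loam one day after planting, postemergence at the 1–4 leaf stage, or to ~2.5 cm floodwater over silt loam.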

[15] = system: lambsquarters; test: Test C preemergence/postemergence greenhouse plant response rating 0 to 100; format: in vivo, Chenopodium album; conditions: POSTEMERGENCE; for Plant response rating Lambsquarters: 0 to 100 scale
How it was run: as §2

[16] = system: blackgrass; test: Test B preemergence/postemergence greenhouse plant response rating 0 to 10; format: in vivo, Alopecurus myosuroides; conditions: 0 to 10 scale
How it was run: as §1

[17] = system: duck salad; test: Test C flood test plant response rating 0 to 100; format: in vivo, Heteranthera limosa; conditions: for Plant response rating Duck salad: flood test species listed under POSTEMERGENCE, 0 to 100 scale
How it was run: as §2

[18] = system: rice; test: Test B preemergence/postemergence greenhouse plant response rating 0 to 10; format: in vivo, Oryza sativa; conditions: 0 to 10 scale
How it was run: as §1

[19] = POSTEMERGENCE section, flood test, Rate 4 g/ha
[20] = Rate 16 g/ha, under POSTEMERGENCE head (flood test species)

## CC(C)OC(=O)c1cc(-c2nn3c(c2Cl)CCCC3)c(F)cc1Cl [Compound 44]
[1]; POSTEMERGENCE, Rate 50 g/ha
  Plant response rating, Cotton: 10
[1]; POSTEMERGENCE, Rate 200 g/ha
  Plant response rating, Cotton: 10
[1]; PREEMERGENCE, Rate 50 g/ha
  Plant response rating, Cotton: 1
[1]; Rate 200 g/ha, PREEMERGENCE
  Plant response rating, Cotton: 8
[2]; POSTEMERGENCE, Rate 50 g/ha
  Plant response rating, Corn: 4
[2]; POSTEMERGENCE, Rate 200 g/ha
  Plant response rating, Corn: 6
[2]; PREEMERGENCE, Rate 50 g/ha
  Plant response rating, Corn: 2
[2]; Rate 200 g/ha, PREEMERGENCE
  Plant response rating, Corn: 3
[3]; POSTEMERGENCE, Rate 50 g/ha
  Plant response rating, Sorghum: 4
[3]; PREEMERGENCE, Rate 50 g/ha
  Plant response rating, Sorghum: 1
[3]; Rate 200 g/ha, POSTEMERGENCE
  Plant response rating, Sorghum: 5
[3]; Rate 200 g/ha, PREEMERGENCE
  Plant response rating, Sorghum: 2
[4]; 62 g/ha
  Plant response rating, Wild buckwheat: 100
[4]; 250 g/ha
  Plant response rating, Wild buckwheat: 100
[4]; Rate 4 g/ha
  Plant response rating (0 to 100), Wild buckwheat: 70
[4]; Rate 16 g/ha
  Plant response rating (0 to 100), Wild buckwheat: 90
[5]; 62 g/ha
  Plant response rating, Wheat: 50
[5]; 250 g/ha
  Plant response rating, Wheat: 80
[5]; Rate 4 g/ha
  Plant response rating (0 to 100), Wheat: 20
[5]; Rate 16 g/ha
  Plant response rating (0 to 100), Wheat: 30
[6]; POSTEMERGENCE, Rate 200 g/ha
  Plant response rating, Crabgrass: 10
[6]; PREEMERGENCE, Rate 50 g/ha
  Plant response rating, Crabgrass: 3
[6]; Rate 200 g/ha, PREEMERGENCE
  Plant response rating, Crabgrass: 9
[7]; 62 g/ha
  Plant response rating, Cotton: 100
[7]; 250 g/ha
  Plant response rating, Cotton: 100
[7]; Rate 4 g/ha
  Plant response rating (0 to 100), Cotton: 90
[7]; Rate 16 g/ha
  Plant response rating (0 to 100), Cotton: 100
[8]; POSTEMERGENCE, Rate 50 g/ha
  Plant response rating, Nutsedge: 4
[8]; PREEMERGENCE, Rate 50 g/ha
  Plant response rating, Nutsedge: 0
[8]; Rate 200 g/ha, POSTEMERGENCE
  Plant response rating, Nutsedge: 8
[8]; Rate 200 g/ha, PREEMERGENCE
  Plant response rating, Nutsedge: 3
[9]; 62 g/ha
  Plant response rating, Velvetleaf: 100
[9]; 250 g/ha
  Plant response rating, Velvetleaf: 100
[9]; Rate 4 g/ha
  Plant response rating (0 to 100), Velvetleaf: 80
[9]; Rate 16 g/ha
  Plant response rating (0 to 100), Velvetleaf: 90
[10]; POSTEMERGENCE, Rate 50 g/ha
  Plant response rating, Sugar beet: 10
[10]; PREEMERGENCE, Rate 50 g/ha
  Plant response rating, Sugar beet: 10
[10]; Rate 200 g/ha, POSTEMERGENCE
  Plant response rating, Sugar beet: 10
[10]; Rate 200 g/ha, PREEMERGENCE
  Plant response rating, Sugar beet: 10
[11]; POSTEMERGENCE, Rate 50 g/ha
  Plant response rating, Wild oat: 5
[11]; PREEMERGENCE, Rate 50 g/ha
  Plant response rating, Wild oat: 4
[11]; Rate 200 g/ha, POSTEMERGENCE
  Plant response rating, Wild oat: 8
[12]; POSTEMERGENCE, Rate 50 g/ha
  Plant response rating, Wheat: 6
[12]; PREEMERGENCE, Rate 50 g/ha
  Plant response rating, Wheat: 3
[12]; Rate 200 g/ha, POSTEMERGENCE
  Plant response rating, Wheat: 6
[12]; Rate 200 g/ha, PREEMERGENCE
  Plant response rating, Wheat: 3
[13]; 62 g/ha
  Plant response rating Pigweed: 100
[13]; 250 g/ha
  Plant response rating Pigweed: 100
[13]; Rate 4 g/ha
  Plant response rating (0 to 100), Pigweed: 90
[13]; Rate 16 g/ha
  Plant response rating (0 to 100), Pigweed: 100
[14]; [19]
  Plant response rating (0 to 100), Barnyardgrass 2: 65
[14]; [20]
  Plant response rating (0 to 100), Barnyardgrass 2: 100
[14]; 62 g/ha
  Plant response rating Barnyardgrass 2: 100
[14]; 250 g/ha
  Plant response rating Barnyardgrass 2: 100
[15]; 62 g/ha
  Plant response rating Lambsquarters: 100
[15]; 250 g/ha
  Plant response rating Lambsquarters: 100
[15]; Rate 4 g/ha
  Plant response rating (0 to 100), Lambsquarters: 90
[15]; Rate 16 g/ha
  Plant response rating (0 to 100), Lambsquarters: 100
[16]; POSTEMERGENCE, Rate 50 g/ha
  Plant response rating, Blackgrass: 8
[16]; POSTEMERGENCE, Rate 200 g/ha
  Plant response rating, Blackgrass: 9
[16]; PREEMERGENCE, Rate 50 g/ha
  Plant response rating, Blackgrass: 4
[16]; Rate 200 g/ha, PREEMERGENCE
  Plant response rating, Blackgrass: 6
[17]; [19]
  Plant response rating (0 to 100), Duck salad: 0
[17]; [20]
  Plant response rating (0 to 100), Duck salad: 30
[17]; 62 g/ha
  Plant response rating Duck salad: 70
[17]; 250 g/ha
  Plant response rating Duck salad: 90
[18]; POSTEMERGENCE, Rate 50 g/ha
  Plant response rating, Rice: 5
[18]; PREEMERGENCE, Rate 50 g/ha
  Plant response rating, Rice: 1
[18]; Rate 200 g/ha, POSTEMERGENCE
  Plant response rating, Rice: 9
[18]; Rate 200 g/ha, PREEMERGENCE
  Plant response rating, Rice: 2
